These results are taken from patent US8058442B2 (Technion Research and Development Foundation Ltd., priority 2002, dated 2011).

Structures are written as SMILES. Like-named read-outs stand apart in the source and are kept apart here.

Data set [1] deals with human erythroleukemia K562 cells. Nature of the data set: Iron permeation of the chelators into calcein-loaded K562 cells. The conditions noted are these: 5 μM chelator, 37° C. It counts as cell-based. How it is done:
The iron-scavenging properties of the chelators were assessed in human erythroleukemia K562 cells, by loading with the permeant CAL-AM probe, in situ formation of free CAL, and binding of cytosolic labile iron. Calcein-AM readily passes through the cell membrane of viable cells because of the enhanced hydrophobicity as compared to Calcein. When Calcein-AM permeates into the cytoplasm, it is hydrolyzed by esterases in cells to the parent Calcein, a pH-independent, cytosolic fluorescent marker, which remains inside of the cell. The time-dependent recovery of fluorescence in the presence of a given chelator provided a continuous measure for the capacity of the chelator to access the iron/CAL-containing compartment.
Calcein uptake and intracellular fluorescence were determined as follows: K562 erythroleukemia cells were preloaded with calcein (CAL) by incubation with […] of the fluorescent probe CAL-AM for 5 min at 37° C., washed and incubated in HBS medium containing anti-CAL antibodies in order to quench traces of extracellular-associated fluorescence. The suspensions were placed in 96-well plates (100 μl final volume) and analyzed as described above while maintaining the system at 37° C. At the indicated time, the indicated chelator was added so as to reach a final 5 μM concentration.
The values of half maximal time (sec) and fraction of fluorescence recovery were: […]

The target of the next data set is T1, rat brain MAO-B (Rattus norvegicus, UniProt P19643).
T1 construct: from tissue; host or cells: rat brain homogenate, 4500 g pellet
T1 sequence (P19643 1-520): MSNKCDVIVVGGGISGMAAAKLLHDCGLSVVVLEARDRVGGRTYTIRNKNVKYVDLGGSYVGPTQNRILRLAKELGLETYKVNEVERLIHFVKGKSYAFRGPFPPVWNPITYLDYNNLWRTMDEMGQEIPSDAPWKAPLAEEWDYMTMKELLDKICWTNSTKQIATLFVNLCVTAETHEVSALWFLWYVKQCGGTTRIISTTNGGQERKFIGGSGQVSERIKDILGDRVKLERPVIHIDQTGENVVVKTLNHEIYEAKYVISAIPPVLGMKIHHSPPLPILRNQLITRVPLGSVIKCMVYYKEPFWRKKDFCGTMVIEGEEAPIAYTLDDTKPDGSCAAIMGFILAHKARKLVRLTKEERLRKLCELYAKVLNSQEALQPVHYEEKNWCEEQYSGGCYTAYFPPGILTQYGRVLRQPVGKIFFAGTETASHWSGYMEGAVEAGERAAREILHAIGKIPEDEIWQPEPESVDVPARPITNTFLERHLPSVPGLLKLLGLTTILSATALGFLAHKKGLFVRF
Nature of the data set: In vitro inhibition of rat brain MAO-B. Format: biochemical. The conditions noted are these: read-out: inhibition of MAO-B. How it is done: Rats were decapitated and the brains were quickly taken into a weighted ice-cold sucrose buffer (0.32 M), and their weights were determined. All subsequent procedures were performed at 0-4° C. The brains were homogenized in 0.25 M sucrose (one part tissue to 20 parts sucrose) in a Teflon glass homogenizer followed by the addition of sucrose buffer to a final concentration of 10% homogenate. The homogenates were centrifuged at 600 g for 15 min. The supernatant fraction was taken out and centrifuged at 4500 g for 30 min, the pellet was diluted in 0.32 M sucrose buffer and kept frozen for later assaying of MAO. Protein concentration was determined with Bradford reagent at 595 nm, using bovine serum albumin as a standard.
The test compound was added to a suitable dilution of the enzyme preparation (70 μg protein for MAO-B and 150 μg MAO-A assay) in 0.05 M phosphate buffer (pH 7.4). The mixture was incubated together with […], a specific inhibitor of MAO-B (for determination of MAO-A) or […] clorgylin, a specific inhibitor of MAO-A (for determination of MAO-B). Incubation was carried for 1 h at 37° C. before addition of ^14C-5-hydroxytryptamine binoxalate ([…]) for determination of MAO-A, or ^14C-phenylethylamine 100 µM for determination of MAO-B, and incubation continued for 30 min or 20 min, respectively. The reaction was stopped with 2 M ice-cold citric acid, and the metabolites were extracted and determined by liquid-scintillation counting in cpm units.
MAO-A and MAO-B activities were determined in rat brain homogenate in vitro following incubation with varying concentrations of the test compounds.
MAO-B activity in presence of the test compound was expressed as a percentage of that in control samples.

Data set [2] is described as follows: n-octanol/water shake-flask distribution coefficient. Format: physicochemical. An excerpt: The partition coefficient (Pow) or the distribution ratio (Dow) between octanol and water are most commonly used measures of the hydrophobicity of compounds. Dow can depend on the concentration of solute, but at reasonably low concentrations. If the solute is in the same form in both phases, Dow becomes constant and is called the partition coefficient Pow. Pow plays an important role in determining the physico-chemical properties and the behaviour of numerous organic compounds in biological systems. Pow is applied to quantitative structure-activity relationship studies, and as a measure of hydrophobicity. All the partition measurements are carried out using a 1-octanol/water shake-flask procedure (Leo, A J. 1991, “Hydrophobic parameter: measurement and calculation”, Methods Enzymol. 202:544-91) or simply by the elution time of solute from HPLC column. Thereafter, the transport properties of the iron-complexes are examined in the water/lipid membrane system (liposomes), which mimics biomembranes much better than the octanol/water system (Breuer et al, 1995).
1-Octanol (Riedel-deHaën, synthesis grade (250-270 nm abs.<0.06) and glass distilled deionized water were used as the partitioning solutions. A Hewlett-Packard 8450A diode array spectrophotometer was used for the quantitative determination of the tested com-pounds in the standard solutions and in the partitioned solutions. The aqueous phase stock solutions were shaken with an excess of 1-octanol to presaturate them and were then allow-ed to stand overnight before use. The 1-octanol stock solutions were also presaturated with 10 mM NaOH and allowed to settle overnight. The experiments were performed in 10-ml stoppered centrifuge tubes. The tubes were inverted gently for 5 min and then, to assure complete phase separation, they were centrifuged for 20 min at 1,000-2,000 g. The aqueous and organic phases were removed separately and analyzed by UV spectrophotometry.
Lipophilicity plays an important role in drug absorption and distribution. The logarithm of the n-octanol/water distribution coefficients (logD) is the most commonly used measure of the lipophilicity of a drug candidate. Here we used an n-octanol/water shake-flask procedure to determine logD. […] In acidic and basic solution, all the test compounds have low log D values, which refer to a good hydrophilicity. This can be explained by the formation of oxinium chloride (in acid) and sodium oxinate (in base) derivatives.

With `C#CCN1CCN(Cc2ccc(O)c3ncccc23)CC1` [HLA20, 5-(4-propargylpiperazin-1-ylmethyl)-8-hydroxyquinoline], the half maximal time was 175 s in data set [1] (FIG. 2A) and 390 s in data set [1] (FIG. 2B). Besides, at rat brain MAO-B, the inhibition (commonly the percentage by which the read-out fell short of the control) at 100 µM came out at 42%. The logD (usually the decadic logarithm of the distribution of all forms, ionised or not, between an organic phase and buffer at a given pH) in data set [2] (H2O, read-out: LogD in H2O) is 1.57; in data set [2] (pH 2, 0.01N HCl, read-out: LogD in 0.01N HCl) it was -1.6; in data set [2] (pH 12, 0.01N NaOH, read-out: LogD in 0.01N NaOH) it was -0.16. Moreover, the “D in 0.01N HCl” value in data set [2] (distribution ratio D = Corg/Caq, 0.01N HCl) was determined as 0.025. Further, the “D in 0.01N NaOH” value in data set [2] (distribution ratio D = Corg/Caq, 0.01N NaOH) is given as 0.70. Moreover, in data set [2] (distribution ratio D = Corg/Caq, H2O), the “D in H2O” value is 37.02.

For the compound `OCCN1CCN(Cc2ccc(O)c3ncccc23)CC1` [VK-28, 5-[4-(2-hydroxyethyl)piperazin-1-ylmethyl]-8-hydroxyquinoline, reference compound], the half maximal time was 1250 s in data set [1] (FIG. 2B) and 1500 s in data set [1] (FIG. 2C). At rat brain MAO-B (100 μM), the inhibition at 100 µM worked out at 13.3%.
